Measurements from PubChem BioAssay (NCI).
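96-well plates; 48 h exposure; 5 concentrations. Endpoints by linear interpolation between flanking doses. Not reached: highest tested concentration assigned. TGI denotes the concentration required for complete inhibition of growth.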 Where a SMILES comes first, the peptide text is derived from it. The star is where a group is joined. Cbz = O=C(OCc1ccccc1)*

Assays:
Assay in all cases: growth of human tumour cells (NCI), 48 h
EKVX NSCLC = system: EKVX NSCLC
HS 578T breast = system: HS 578T breast
HCT-116 colon = system: HCT-116 colon
UACC-257 melanoma = system: UACC-257 melanoma
TK-10 renal = system: TK-10 renal
HOP-92 NSCLC = system: HOP-92 NSCLC
IGROV1 ovarian = system: IGROV1 ovarian
HT29 colon = system: HT29 colon
T-47D breast = system: T-47D breast
SR leukemia = system: SR leukemia
NCI/ADR-RES ovarian = system: NCI/ADR-RES ovarian
SF-268 CNS = system: SF-268 CNS
UACC-62 melanoma = system: UACC-62 melanoma
LOX IMVI melanoma = system: LOX IMVI melanoma
OVCAR-8 ovarian = system: OVCAR-8 ovarian
A549 NSCLC = system: A549 NSCLC
NCI-H23 lung = system: NCI-H23 lung
NCI-H460 lung = system: NCI-H460 lung
MOLT-4 leukemia = system: MOLT-4 leukemia

| Structure (SMILES) | TGI (EKVX NSCLC) | TGI (HS 578T breast) | TGI (HCT-116 colon) | TGI (UACC-257 melanoma) | TGI (TK-10 renal) | TGI (HOP-92 NSCLC) | TGI (IGROV1 ovarian) | TGI (HT29 colon) | TGI (T-47D breast) | TGI (SR leukemia) | TGI (NCI/ADR-RES ovarian) | TGI (SF-268 CNS) | TGI (UACC-62 melanoma) | TGI (LOX IMVI melanoma) | TGI (OVCAR-8 ovarian) | TGI (A549 NSCLC) | TGI (NCI-H23 lung) | TGI (NCI-H460 lung) | TGI (MOLT-4 leukemia) |
| --- | --- | --- | --- | --- | --- | --- | --- | --- | --- | --- | --- | --- | --- | --- | --- | --- | --- | --- | --- |
| O=C(c1ccccc1)N(CCCCNC(=O)C(F)(F)F)CCCNC(=O)C(F)(F)F | > 100 µM | > 100 µM | > 100 µM | > 100 µM | > 100 µM | > 100 µM | > 100 µM | > 100 µM | > 100 µM | > 100 µM | > 100 µM | > 100 µM | > 100 µM | > 100 µM | > 100 µM | > 100 µM | > 100 µM | > 100 µM | > 100 µM |
| CC(C)=NOC(=O)OC[C@H]1O[C@@H](n2cnc3c(N)ncnc32)C(O)C1O (some centres not stated) | > 100 µM | > 100 µM | – | – | > 100 µM | – | > 100 µM | > 100 µM | > 100 µM | > 100 µM | > 100 µM | > 100 µM | – | > 100 µM | > 100 µM | > 100 µM | > 100 µM | > 100 µM | > 100 µM |
| c1ccc(SCCc2ccncc2)cc1 | > 100 µM | > 100 µM | > 100 µM | > 100 µM | > 100 µM | > 100 µM | > 100 µM | > 100 µM | > 100 µM | > 100 µM | > 100 µM | > 100 µM | > 100 µM | > 100 µM | > 100 µM | > 100 µM | > 100 µM | > 100 µM | > 100 µM |
| CCOC(=O)C(NC(=O)c1ccccc1)(c1ccc(S(=O)(=O)Nc2onc(C)c2C)cc1)C(F)(F)F (configuration not stated) | > 100 µM | > 100 µM | > 100 µM | > 100 µM | > 100 µM | > 100 µM | > 100 µM | > 100 µM | > 100 µM | > 100 µM | > 100 µM | > 100 µM | > 100 µM | > 100 µM | > 100 µM | > 100 µM | > 100 µM | > 100 µM | > 100 µM |
| O=S1(=O)c2ccccc2N2C(c3ccccc3)=NOC2(c2ccccc2)CC1c1ccc(Br)cc1 (configuration not stated) | > 100 µM | > 100 µM | > 100 µM | > 100 µM | > 100 µM | > 100 µM | > 100 µM | > 100 µM | > 100 µM | > 100 µM | > 100 µM | > 100 µM | > 100 µM | > 100 µM | > 100 µM | > 100 µM | > 100 µM | > 100 µM | > 100 µM |
| COc1ccc2nc3cc([N+](=O)[O-])ccc3c(Nc3ccc(S(=O)(=O)Nc4ncccn4)cc3)c2c1 | > 100 µM | 92.4 µM | > 100 µM | > 100 µM | > 100 µM | > 100 µM | > 100 µM | > 94.8 µM | > 100 µM | > 30.5 µM | > 100 µM | > 100 µM | > 100 µM | > 100 µM | > 100 µM | > 100 µM | > 23.2 µM | > 100 µM | > 48.3 µM |
| Cc1ccc(N=C2OP(=O)(Nc3ccc(C)cc3)Oc3ccccc32)cc1 (configuration not stated) | > 100 µM | > 100 µM | > 100 µM | > 100 µM | > 100 µM | 90.5 µM | > 100 µM | > 100 µM | > 100 µM | > 100 µM | > 100 µM | > 100 µM | > 100 µM | > 100 µM | > 100 µM | > 100 µM | > 100 µM | > 100 µM | > 100 µM |
| CCOC(=O)[C@@]1(C(C)=O)CC(C)=C(C)C[S@]1=O | > 100 µM | > 100 µM | > 100 µM | > 100 µM | > 100 µM | > 100 µM | > 100 µM | – | > 100 µM | > 100 µM | > 100 µM | > 100 µM | > 100 µM | > 100 µM | > 100 µM | > 100 µM | > 100 µM | > 100 µM | > 100 µM |
| Nc1ncnc2c1ncn2[C@@H]1O[C@H](COP(=O)(O)OP(=O)(O)OC[C@H]2O[C@@H](OCCCO)[C@H](O)[C@@H]2O)[C@@H](O)[C@H]1O | > 100 µM | > 100 µM | > 100 µM | > 100 µM | > 100 µM | > 100 µM | > 100 µM | > 100 µM | > 100 µM | > 100 µM | > 100 µM | > 100 µM | > 100 µM | > 100 µM | > 100 µM | > 100 µM | > 100 µM | > 100 µM | > 100 µM |
| N#Cc1sc2c(c1OC(=O)c1ccc(Cl)cc1Cl)c(=O)n(-c1ccccc1)c(=S)n2-c1ccccc1 | 65.1 µM | 89.6 µM | 39.2 µM | > 100 µM | 92.5 µM | 68.9 µM | 38.6 µM | 55 µM | > 100 µM | > 100 µM | 50.3 µM | > 100 µM | 40.4 µM | 39.8 µM | > 100 µM | > 100 µM | 50.8 µM | > 100 µM | 45.9 µM |
| CN(C)/C=C/c1c2c(nc3ccccc13)C(=O)c1cccnc1C2=O | 22.9 µM | 4.65 µM | 0.697 µM | 1.8 µM | 4.03 µM | 11.5 µM | 4.16 µM | 5.15 µM | 21.6 µM | 0.907 µM | 1.9 µM | 4.02 µM | 1.25 µM | – | 3.2 µM | 2.59 µM | 0.42 µM | 0.532 µM | 6.98 µM |
| COc1ccc(N/N=C/C2=CC(C)(C)C(C#N)(C#N)C(O)=C2C#N)cc1 | > 100 µM | > 100 µM | > 100 µM | > 100 µM | > 100 µM | 75.6 µM | > 100 µM | > 100 µM | > 100 µM | 82.3 µM | > 100 µM | > 100 µM | > 100 µM | > 100 µM | > 100 µM | > 100 µM | > 100 µM | > 100 µM | > 100 µM |
| COC(=O)C(CC(C)C)NC(=O)C(CCCN=C(N)N)NC(=O)OCc1ccccc1 (stereo not drawn) (Cbz-Arg-Leu-OMe; configuration not given here) | > 100 µM | > 100 µM | > 100 µM | – | > 100 µM | > 100 µM | > 100 µM | > 100 µM | > 100 µM | > 100 µM | > 100 µM | > 100 µM | > 100 µM | > 100 µM | > 100 µM | > 100 µM | > 100 µM | > 100 µM | > 100 µM |
| COc1ccc2c(=O)c3c([nH]c2c1)OCC3=O | > 100 µM | > 100 µM | > 100 µM | > 100 µM | > 100 µM | > 100 µM | > 100 µM | > 100 µM | > 100 µM | > 100 µM | > 100 µM | > 100 µM | > 100 µM | > 100 µM | > 100 µM | – | > 100 µM | > 100 µM | > 100 µM |
| COC(=O)CCC(=O)c1ccc2c(c1)CC1(C2)Cc2ccc(C(=O)CCC(=O)OC)cc2C1 | > 100 µM | > 100 µM | > 100 µM | > 100 µM | > 100 µM | > 100 µM | > 100 µM | > 100 µM | > 100 µM | 88.5 µM | > 100 µM | – | > 100 µM | > 100 µM | > 100 µM | > 100 µM | > 100 µM | – | > 100 µM |
| O=C1NC(=NCc2ccc(F)cc2)N/C1=C\c1ccccc1Cl | 58.2 µM | > 100 µM | 30.3 µM | > 100 µM | 67.4 µM | 24.9 µM | > 100 µM | 29.5 µM | 29.4 µM | > 100 µM | 86.1 µM | 59.9 µM | 29.8 µM | 28.6 µM | 29.3 µM | 41.8 µM | – | > 100 µM | > 100 µM |
| CCOc1cc(C2SCC(=O)N2c2ccc3c(c2)Oc2c(Cl)c4c(c(Cl)c2=N3)Oc2cc(N3C(=O)CSC3c3ccc(O)c(OCC)c3)ccc2N=4)ccc1O (configuration not stated) | > 100 µM | > 100 µM | 41.4 µM | > 100 µM | > 100 µM | 59.1 µM | > 100 µM | > 100 µM | > 100 µM | > 100 µM | > 100 µM | > 100 µM | – | > 100 µM | > 100 µM | 83.4 µM | 47.6 µM | > 100 µM | > 100 µM |
| CCO[C@H]1O[C@@H]2OC3(C)CCC4[C@H](C)CCC([C@H]1C)[C@]42OO3 (some centres not stated) | > 100 µM | > 100 µM | > 100 µM | – | > 100 µM | > 100 µM | > 100 µM | > 100 µM | > 100 µM | > 100 µM | > 100 µM | > 100 µM | > 100 µM | > 100 µM | 51.7 µM | > 100 µM | > 100 µM | > 100 µM | > 100 µM |
| CCOc1ccccc1Nc1ccc(N)cc1S(=O)(=O)O | > 100 µM | > 100 µM | > 100 µM | > 100 µM | > 100 µM | > 100 µM | > 100 µM | > 100 µM | > 100 µM | > 100 µM | > 100 µM | > 100 µM | > 100 µM | > 100 µM | – | > 100 µM | > 100 µM | > 100 µM | > 100 µM |
